The subject of data set [1] is HDM-allergic mice. Briefly: AHR measurement in house dust mite (HDM)-induced allergic airways disease. In kind it is in vivo, BALB/c mice. Particulars: HDM-sensitized and challenged mice; treatment during allergen challenge. The method, then: Mice were sensitized and challenged by exposing them intranasally to house dust mite (HDM) (50 mcg daily at day 0, 1, and 2 followed by 5×5 mcg daily from day 14 to day 17 delivered in 50 μl of sterile saline). The single dose of HDM employed in initial studies was 50 mcg/50 μl of sterile saline. Non-sensitized mice received sterile saline only.
AHR was assessed invasively in separate groups of anesthetized mice by measurement of total lung resistance and dynamic compliance. Percentage increase over baseline (water) in response to nebulised methacholine was calculated.
(§1) Specifically, allergic mice were treated with a commercially available (Ambion) in-vitro validated small interfering (si)RNA directed against Midline-1 (SEQ ID NO:3) (MID1 siRNA) or a scrambled nonsense siRNA (control) following previously established protocols. BALB/c mice were anesthetised with isoflurane before being sensitised with the intranasal administration of either 50 μg House Dust Mite antigen (HDM) in 50 μl of sterile saline or 50 μl of sterile saline in control groups. This sensitisation was repeated at days 1 and 2 following initial sensitisation. On day 14 following initial sensitisation the mice were again anesthetised with isoflurane before receiving intranasal challenge with 5 μg of HDM in […] of sterile water. This challenge dosage was repeated daily from day 14 through 17. Mice received intranasal administration of maked Mid-1 siRNA or scramble control in 25 μl of saline under isoflurane anaesthesia on days 13, 15 and 17, through the period of HDM challenge. On day 18, 24 hrs after the final HDM challenge, the mice were sacrificed with an excess dose of sodium pentobarbitone administered intraperitoneally (200 μl total volume).

In data set [2] the test system is HDM-allergic mice. Briefly: Airway inflammation, mucus-producing cells and BALF cells in HDM-induced allergic airways disease. It is filed as in vivo, BALB/c mice. How it is done: as §1, with “Mice were sensitized and challenged by exposing them intranasally to house dust mite (HDM) (50 mcg daily at day 0, 1, and 2 followed by 5×5 mcg daily from day 14 to day 17 delivered in 50 μl of sterile saline). The single dose of HDM employed in initial studies was 50 mcg/50 μl of sterile saline. Non-sensitized mice received sterile saline only. Lung tissue was stained, cells identified by morphological criteria, and quantitated by counting ten high power fields (HPFs) in each slide. […] Specifically,” for “Specifically,”

Data set [3] deals with peribronchial lymph node cells. Nature of the data set: Cytokine release from in-vitro HDM-stimulated peribronchial lymph node cells. The following applies: HDM-sensitized and challenged mice. In kind it is in vivo, BALB/c mice. How it is done:
Peribronchial lymph node cells were excised, filtered, and cultured in the presence or absence of 50 mcg/ml HDM (optimal concentration) for 6 days. IL-13, IL-5, and IFN-γ were determined by ELISA (BD Biosciences Pharmingen).

Another data set concerns CCL20. Briefly: CCL20 expression/release in airway wall or lung homogenates of HDM-allergic mice. In kind it is in vivo, BALB/c mice. Particulars: HDM-sensitized and challenged mice. The method, then: Total RNA was isolated with mirVana m/miRNA Isolation kit (Ambion) from lower airway tissue that was separated by blunt dissection allowing effective separation of the airway wall from the parenchyma (Mattes, 2009). quantitative RT-PCR (qRT-PCR) was performed with SYBR® Green (Invitrogen) using an Eppendorf […] (threshold cycle) quantification was performed using Eppendorf Realplex analysis software 2.2. Mouse mRNA expression was normalised to HPRT, human mRNA to GAPDH. Fold change was calculated using delta delta CT values relative to control groups.

Data set [4] concerns the target PP2A (Mus musculus, UniProt P63330). Particulars: HDM-allergic mice, daily intranasal treatment. The method, then:
PP2a activity was measured by R&D Systems PP2A DuoSet IC activity assay kit according to the manufacturer's instructions. This was performed on homogenized mouse lungs and harvested BEAS-2B cells.

Data set [5] has as its target T1, PP2A (Homo sapiens, UniProt P67775).
T1 construct: endogenous in cells; host or cells: BEAS-2B
Nature of the data set: PP2A activity in HDM-stimulated human bronchial epithelial cells (BEAS-2B). Particulars: BEAS-2B + crude HDM extract, 24 hours; salbutamol 0.1, 1, 10 μM; mitoxantrone analogue 1, 5, 25 μg/ml; AAL(s) 0.5, 2 μM. In kind it is cell-based. The method, then: • Activation of PP2A The inventors have examined the ability of known PP2A agonists to influence PP2A activity in human bronchial epithelial cells stimulated with crude house dust mite extract. Immortalised human bronchial epithelial cells (BEAS-2B) were seeded at 1×10^5 cells/well in 12-well tissue culture plates and allowed to reach 80% confluency. Cells were then treated with either salbutamol, a mitoxantrone analogue, or AAL(s), at a range of tolerable concentrations (0.1, 1 and 10 μM for salbutamol; 1, 5 and 25 μg/ml for the nitoxantrone analaogue; and 0.5 and 2 μM for AAL(s)). Simultaneously, cells were stimulated with crude House Dust Mite (HDM) extract and left for 24 hours. Cells were then collected, washed, lysed, and PP2A activity assayed (R&D Systems), measuring phosphatase activity when fed a synthetic substrate. PP2A activity was reduced upon HDM stimulation compared to the non-stimulated media only group (representing physiologically normal activity levels).

Data set [6] has as its system ovalbumin-challenged mice. The following applies: OVA 3x a week for 3 months, AAL(S) daily. From the text: (§2) The inventors then determined the ability of AAL(S) to protect against airway fibrosis in two mouse models, a chronic ovalbumin model of allergic airways disease and an acute bleomycin-induced fibrosis model.
Mice received ovalbumin (OVA)+alumn IP at day 0 and 2 weeks. Mice then received OVA 3× a week for 3 months. AAL treated mice received AAL(S) daily throughout the 3 month challenge period.

The next data set relates to bleomycin-treated mice. The following applies: bleomycin intratracheally, sacrificed after 23 days; AAL(S) daily.
Description: as §2
In the bleomycin model, mice received bleomycin intratracheally and were sacrificed after 23 days. AAL(S) treated mice received AAL(S) daily post bleomycin administration.

The subject of data set [7] is sphingosine-1-phosphate receptors. Particulars: Don et al., 2007; cited from earlier work.
The next data set has as its target sphingosine kinase 2 (Homo sapiens, UniProt Q9NRA0). Particulars: Don et al., 2007; cited from earlier work.
The conditions of data set [8]: in vivo; cited from earlier work.
[9] abbreviates: HDM-allergic and challenged mice.

T1 sequence (P67775 whole entry): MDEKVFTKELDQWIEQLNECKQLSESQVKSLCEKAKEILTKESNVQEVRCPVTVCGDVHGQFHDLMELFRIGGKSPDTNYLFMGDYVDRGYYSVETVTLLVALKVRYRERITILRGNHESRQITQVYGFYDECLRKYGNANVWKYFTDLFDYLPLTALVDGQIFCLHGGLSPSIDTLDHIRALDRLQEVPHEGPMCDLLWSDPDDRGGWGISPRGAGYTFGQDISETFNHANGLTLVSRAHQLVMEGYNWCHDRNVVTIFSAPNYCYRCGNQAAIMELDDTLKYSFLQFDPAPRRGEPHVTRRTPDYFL
T1 sequence (P30153 whole entry partner): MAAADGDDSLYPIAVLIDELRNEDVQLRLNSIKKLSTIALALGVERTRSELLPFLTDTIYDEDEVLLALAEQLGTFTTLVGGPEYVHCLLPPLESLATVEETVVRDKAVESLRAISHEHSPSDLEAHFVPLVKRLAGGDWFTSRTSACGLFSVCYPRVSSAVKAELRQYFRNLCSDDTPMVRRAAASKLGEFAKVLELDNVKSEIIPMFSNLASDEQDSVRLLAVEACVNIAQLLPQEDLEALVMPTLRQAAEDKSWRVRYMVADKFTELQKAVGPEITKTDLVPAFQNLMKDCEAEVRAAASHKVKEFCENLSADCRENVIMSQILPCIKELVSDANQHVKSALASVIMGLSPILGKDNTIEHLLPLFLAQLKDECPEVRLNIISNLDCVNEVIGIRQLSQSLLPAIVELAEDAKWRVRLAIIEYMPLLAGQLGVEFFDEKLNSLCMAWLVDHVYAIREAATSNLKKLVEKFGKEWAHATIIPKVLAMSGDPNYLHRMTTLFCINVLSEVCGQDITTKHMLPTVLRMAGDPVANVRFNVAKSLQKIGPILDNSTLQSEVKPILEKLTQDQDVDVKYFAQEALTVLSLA
Sequence of PP2A (Mus musculus, UniProt P63330) (P63330 whole entry): as the sequence (P67775 whole entry) above, with V5L counted along it
Sequence of PP2A (Mus musculus, UniProt P63330) (Q76MZ3 whole entry partner): as the sequence (P30153 whole entry partner) above, with S324T counted along it
Sequence of sphingosine kinase 2 (Q9NRA0 whole entry, species assumed): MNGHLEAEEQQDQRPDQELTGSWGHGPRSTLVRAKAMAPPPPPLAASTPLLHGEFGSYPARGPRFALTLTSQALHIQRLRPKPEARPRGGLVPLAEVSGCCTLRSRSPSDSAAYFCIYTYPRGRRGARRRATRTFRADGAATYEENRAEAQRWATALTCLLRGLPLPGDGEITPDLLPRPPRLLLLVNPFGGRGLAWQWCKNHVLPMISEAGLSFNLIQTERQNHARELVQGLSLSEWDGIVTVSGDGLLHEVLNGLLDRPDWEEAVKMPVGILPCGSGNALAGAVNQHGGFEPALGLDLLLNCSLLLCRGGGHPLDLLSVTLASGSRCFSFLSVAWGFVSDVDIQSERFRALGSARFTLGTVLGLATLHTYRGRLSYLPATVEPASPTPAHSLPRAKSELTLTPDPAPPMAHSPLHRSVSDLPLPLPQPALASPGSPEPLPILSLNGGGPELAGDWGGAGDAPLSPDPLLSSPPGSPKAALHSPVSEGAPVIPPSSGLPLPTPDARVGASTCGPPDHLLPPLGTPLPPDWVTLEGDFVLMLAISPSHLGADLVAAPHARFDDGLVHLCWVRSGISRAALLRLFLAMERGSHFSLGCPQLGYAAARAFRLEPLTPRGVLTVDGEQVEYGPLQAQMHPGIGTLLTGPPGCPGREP

Take `CCCCCCCOc1ccc(CCC(C)(N)CO)cc1` [AAL(S), 2-amino-4-(4-heptyloyphenol)-2-methylbutanol]: in the data set on HDM-allergic mice [1], the “airways hyperresponsiveness (total lung resistance in response to inhaled methacholine)” value (“airways hyperresponsiveness” for short) is on record as “precluded the development”. The airways inflammation entry in the data set on HDM-allergic mice [2] (HDM-sensitized and challenged mice, treatment during allergen challenge) was “precluded the development”. In addition, the “Th2 cytokine release in allergen-stimulated peribronchial lymphnode cultures” value in data set [3] is on record as “reduced”. In the data set on CCL20, the “CCL20 release (levels in lung homogenates)” value is “reduced”. Besides, on PP2A [4], the “PP2A activity in the lungs” value is on record as “reactivates PP2A in the lungs”. At PP2A [5], the “PP2A activity (phosphatase activity on synthetic substrate)” value was “fully restored”. Further, the “lung function (forced vital capacity and forced expiratory volume in 100 milliseconds)” value in [6] is recorded as “improved”. Also, in data set [6] (wildtype BALB/c mice), the “airways fibrosis (collagen deposition surrounding the airways)” value is “protected”. Besides, in the data set with bleomycin-treated mice, the “collagen deposition in airways” value is “protected”. In [7], the “binding to sphingosine-1-phosphate receptors” value is “does not bind”. Further, the “phosphorylation by sphingosine kinase 2” value on sphingosine kinase 2 was “cannot be phosphorylated”. Further, the lymphopenia entry in data set [8] is reported as “does not cause lymphopenia”.
Consider `CCCCCCCCc1ccc(CCC(N)(CO)CO)cc1` [FTY720], for which the “airways hyperresponsiveness” value in the data set on HDM-allergic mice [1] was “reduced”. Besides, in the data set with HDM-allergic mice [2] (setting [9]), the “eosinophils (BALF)” value is reported as “reduced”, the “lymphocytes (BALF)” value is on record as “reduced” and the “neutrophils (BALF)” value was “reduced”. Besides, the “CCL20 release (levels in lung homogenates)” value in the data set on CCL20 is listed as “reduced”.
On to `CCCCCCCCc1ccc(CCC(N)(CO)COP(=O)(O)O)cc1` (stereo not drawn) [pFTY720], for which, in the data set on HDM-allergic mice [1], the “airways hyperresponsiveness” value is “partial reduction”. Also, in the data set on HDM-allergic mice [2] (setting [9]), the “eosinophils (BALF)” value is “partial reduction” and the “neutrophils (BALF)” value is “partial reduction”.
Take `CC(C)(C)NCC(O)c1ccc(O)c(CO)c1` (stereo not drawn) [salbutamol]: the “PP2A activity (phosphatase activity on synthetic substrate)” value at PP2A [5] is reported as “restore PP2A activity to a significant level”.

The record behind these values is patent US20130309238A1, “SIGNAL TRANSDUCTION PATHWAY MODULATION” (NEWCASTLE INNOVATION LIMITED, priority 2010, published 2013).
